Test results from ChEMBL document CHEMBL3102727, “Conformationally constrained ortho-anilino diaryl ureas: discovery of 1-(2-(1'-neopentylspiro[indoline-3,4'-piperidine]-1-yl)phenyl)-3-(4-(trifluoromethoxy)phenyl)urea, a potent, selective, and bioavailable P2Y1 antagonist” (J Med Chem, 2013).
≈ marks a conversion by molar mass, not a printed value. Calls of active or inactive are those of the source. The rule behind the calls is not given here.

How the values were obtained:
P2Y purinoceptor 1 [1] = biological target: T1, P2Y purinoceptor 1 (Homo sapiens, UniProt P47900); test: Displacement of [33P]-2MeS-ADP from human P2Y1 receptor expressed in HEK293 cells after 1 hr by scintillation counting analysis; format: cell-based
[2] = Partition coefficient, log P of the compound at pH 7 by reversed-phase HPLC method; format: physicochemical; conditions: octanol/water
[3] = Aqueous solubility of the amorphous form of compound in phosphate buffer at pH 6.5; format: physicochemical
P2Y purinoceptor 1 [4] = biological target: T1, P2Y purinoceptor 1; test: Antagonist activity at P2Y1 receptor in platelet-enriched human plasma assessed as 2.5 uM ADP-induced platelet aggregation preincubated for 1 min followed by ADP induction measured at 5 mins by aggregometric analysis
[5] = Metabolic stability in rat liver microsomes assessed as compound remaining after 10 mins; format: ADME; conditions: read-out: Stability
[6] = Metabolic stability in human liver microsomes assessed as compound remaining after 10 mins; format: ADME; conditions: read-out: Stability
[7] = Metabolic stability in mouse liver microsomes assessed as compound remaining after 10 mins; format: ADME, Microsome; conditions: read-out: Stability
P2Y purinoceptor 1 [8] = biological target: T1, P2Y purinoceptor 1; test: Antagonist activity at P2Y1 receptor in washed human platelets assessed as 1 uM 2-methylthio-ADP-induced calcium flux by FLIPR assay; format: functional
[9] = Aqueous solubility of the of partial crystalline form of compound in phosphate buffer at pH 6.5; format: physicochemical
[10] = Aqueous solubility of the crystalline form of compound in phosphate buffer at pH 6.5; format: physicochemical

T1 sequence (P47900 whole entry): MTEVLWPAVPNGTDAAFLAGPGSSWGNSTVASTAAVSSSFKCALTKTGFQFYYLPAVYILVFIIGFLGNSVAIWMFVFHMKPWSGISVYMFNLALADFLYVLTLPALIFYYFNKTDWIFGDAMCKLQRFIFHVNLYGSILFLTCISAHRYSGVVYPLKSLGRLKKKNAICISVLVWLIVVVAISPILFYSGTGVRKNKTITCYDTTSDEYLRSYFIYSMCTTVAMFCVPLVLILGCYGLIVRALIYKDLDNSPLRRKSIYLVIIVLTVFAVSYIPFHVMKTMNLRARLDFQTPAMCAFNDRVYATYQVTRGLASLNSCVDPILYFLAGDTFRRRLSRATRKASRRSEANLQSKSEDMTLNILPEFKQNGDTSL

Ki (P2Y purinoceptor 1 [1])	logP [2]	solubility [3]	SMILES	other results
20.3 nM	–	–	CC1(C)CN(c2ncccc2NC(=O)Nc2ccc(OC(F)(F)F)cc2)c2ccccc21	–
390 nM	5.1	66 µg/mL (≈ 122 µM)	COCCN1CCC2(CC1)CN(c1ccccc1NC(=O)Nc1ccc(OC(F)(F)F)cc1)c1ccccc12	–
–	–	–	O=C(Nc1ccc(OC(F)(F)F)cc1)Nc1cccnc1-c1cc2ccccc2[nH]1	Activity (P2Y purinoceptor 1 [4]): inactive; IC50 (P2Y purinoceptor 1 [1]): 227 nM
7.3 nM	> 6.2	–	CC1(C)CCN(c2ccccc2NC(=O)Nc2ccc(OC(F)(F)F)cc2)c2ccccc21	remaining at 10 min [5]: 6%; remaining at 10 min [6]: 51%; remaining at 10 min [7]: 63%
5.8 nM	> 6.2	1 µg/mL (≈ 1.86 µM)	CC(C)(C)CN1CCC2(C1)CN(c1ccccc1NC(=O)Nc1ccc(OC(F)(F)F)cc1)c1ccccc12 (stereo unspecified)	–
12.8 nM	> 6.2	< 1 µg/mL	CC(C)(C)CN1CCCC2(C1)CN(c1ccccc1NC(=O)Nc1ccc(OC(F)(F)F)cc1)c1ccccc12 (stereo unspecified)	–
6.6 nM	–	–	O=C(Nc1ccc(OC(F)(F)F)cc1)Nc1ccccc1N1CC2(CCCC2)c2ccccc21	–
36.6 nM	–	–	O=C(Nc1ccc(OC(F)(F)F)cc1)Nc1ccccc1N1CC2(CCN(C(=O)OCc3ccccc3)CC2)c2ccccc21	IC50 (P2Y purinoceptor 1 [8]): 5.9 nM
13500 nM	4.4	5 µg/mL (≈ 9.25 µM)	O=C(O)CN1CCC2(CC1)CN(c1ccccc1NC(=O)Nc1ccc(OC(F)(F)F)cc1)c1ccccc12	–
36.5 nM	–	–	O=C(Nc1ccc(OC(F)(F)F)cc1)Nc1ccccc1N1CCCc2ccccc21	–
94 nM	5.5	–	CN1CCN(c2ccccc2NC(=O)Nc2ccc(OC(F)(F)F)cc2)c2ccccc21	–
5.9 nM	–	< 1 µg/mL	O=C(Nc1ccc(OC(F)(F)F)cc1)Nc1ccccc1N1CC2(CCCCC2)c2ccccc21	IC50 (P2Y purinoceptor 1 [8]): 2.2 nM
39 nM	–	–	CC1(C)CN(c2ccccc2NC(=O)Nc2ccc(OC(F)(F)F)cc2)c2ccccc2O1	–
253 nM	–	–	CC(C)(C)CN1CCC2(CC1)CN(c1ccccc1NC(=O)Nc1ccc(OC(F)(F)F)cc1)c1ncccc12	IC50 (P2Y purinoceptor 1 [8]): 503 nM
4500 nM	4.3	–	O=C(Nc1ccc(OC(F)(F)F)cc1)Nc1ccccc1N1CC2(CCNCC2)c2ccccc21	solubility [9]: 84 µg/mL (≈ 174 µM)
13.3 nM	6	–	COC(=O)N1CCC2(CC1)CN(c1ccccc1NC(=O)Nc1ccc(OC(F)(F)F)cc1)c1ccccc12	solubility [10]: 1 µg/mL (≈ 1.85 µM)

Ki (P2Y purinoceptor 1 [1])	logP [2]	solubility [3]	SMILES	other results
65 nM	5.7	–	O=C(Nc1ccc(OC(F)(F)F)cc1)Nc1ccccc1N1CCOc2ccccc21	–
26 nM	–	–	O=C(Nc1ccc(OC(F)(F)F)cc1)Nc1ccccc1N1CC2(CC2)c2ccccc21	–
4500 nM	4.6	–	O=C(Nc1ccc(OC(F)(F)F)cc1)Nc1ccccc1N1CC2(CCN(CCO)CC2)c2ccccc21	solubility [9]: 123 µg/mL (≈ 234 µM)
830 nM	–	–	O=C(Nc1ccc(OC(F)(F)F)cc1)Nc1ccccc1N1CCCCc2ccccc21	–
–	–	–	O=C(Nc1ccc(OC(F)(F)F)cc1)Nc1ccccc1-c1cc2ccccc2[nH]1	Activity (P2Y purinoceptor 1 [4]): inactive; IC50 (P2Y purinoceptor 1 [1]): 75 nM
4.6 nM	> 6.2	16 µg/mL (≈ 28.2 µM)	CC(C)(C)CN1CCC2(CC1)CCN(c1ccccc1NC(=O)Nc1ccc(OC(F)(F)F)cc1)c1ccccc12	IC50 (P2Y purinoceptor 1 [8]): 9.9 nM; remaining at 10 min [5]: 87%; remaining at 10 min [6]: 90%
18.6 nM	> 6.3	–	O=C(Nc1ccc(OC(F)(F)F)cc1)Nc1ccccc1N1CC2(CCN(Cc3ccccc3)CC2)c2ccccc21	solubility [9]: < 1 µg/mL
28.7 nM	> 6.2	5 µg/mL (≈ 9.03 µM)	CC(C)(C)CN1CCC2(CC1)CN(c1ccccc1NC(=O)Nc1ccc(OC(F)(F)F)cc1)c1cccnc12	–
11.5 nM	> 6	25 µg/mL (≈ 45.2 µM)	CC(C)(C)CN1CCC2(CC1)CN(c1ccccc1NC(=O)Nc1ccc(OC(F)(F)F)cc1)c1cnccc12	IC50 (P2Y purinoceptor 1 [8]): 10.7 nM; remaining at 10 min [5]: 73%; remaining at 10 min [6]: 67%
16 nM	–	–	CC1(C)CCN(c2ncccc2NC(=O)Nc2ccc(OC(F)(F)F)cc2)c2ccccc21	–
617 nM	5.1	428 µg/mL (≈ 773 µM)	CC(C)(C)CN1CCC2(CC1)CN(c1ccccc1NC(=O)Nc1ccc(OC(F)(F)F)cc1)c1ccncc12	IC50 (P2Y purinoceptor 1 [8]): 346 nM
690 nM	4.6	100 µg/mL (≈ 201 µM)	CN1CCC2(CC1)CN(c1ccccc1NC(=O)Nc1ccc(OC(F)(F)F)cc1)c1ccccc12	–
7.6 nM	–	–	O=C(Nc1ccc(OC(F)(F)F)cc1)Nc1ccccc1N1CC2(CCC2)c2ccccc21	IC50 (P2Y purinoceptor 1 [8]): 10.5 nM
29.5 nM	–	–	CC1CCN(c2ccccc2NC(=O)Nc2ccc(OC(F)(F)F)cc2)c2ccccc21 (stereo unspecified)	–
200 nM	5.7	–	CC(C)NC(=O)N1CCC2(CC1)CN(c1ccccc1NC(=O)Nc1ccc(OC(F)(F)F)cc1)c1ccccc12	solubility [9]: 1 µg/mL (≈ 1.76 µM)

SMILES	Ki (P2Y purinoceptor 1 [1])	logP [2]	solubility [3]	other results
CC(C)N1CCC2(CC1)CN(c1ccccc1NC(=O)Nc1ccc(OC(F)(F)F)cc1)c1ccccc12	–	4.5	–	solubility [9]: 71 µg/mL (≈ 135 µM)
CC(C)CN1CCC2(CC1)CN(c1ccccc1NC(=O)Nc1ccc(OC(F)(F)F)cc1)c1ccccc12	20.7 nM	5.5	–	solubility [9]: 7 µg/mL (≈ 13 µM); remaining at 10 min [5]: 84%; remaining at 10 min [6]: 79%
